Among the data in PubChem BioAssay AID602264 (The Scripps Research Institute Molecular Screening Center, 2012) are EC50 values, retold here.

This test has as its target Mu-type opioid receptor (Homo sapiens) + Delta-type opioid receptor (Homo sapiens) (UniProt P35372+P41143). As to the kind of experiment: agonists of MOR-DOR heterodimerization, dose response, counter-screen for MC4R biased agonist project, cell-based, luminescence (AID 602264). Particulars: cell-based OPRM1-OPRD1 heterodimerization. (In general: A counterscreen serves to expose hits that act by an unwanted route or on another target.)

Structures are written as SMILES. Activity calls are given as the source filed them. No rule for the calls is given here.

Chain of Mu-type opioid receptor (Homo sapiens) + Delta-type opioid receptor (Homo sapiens) (P35372 whole entry, looked up): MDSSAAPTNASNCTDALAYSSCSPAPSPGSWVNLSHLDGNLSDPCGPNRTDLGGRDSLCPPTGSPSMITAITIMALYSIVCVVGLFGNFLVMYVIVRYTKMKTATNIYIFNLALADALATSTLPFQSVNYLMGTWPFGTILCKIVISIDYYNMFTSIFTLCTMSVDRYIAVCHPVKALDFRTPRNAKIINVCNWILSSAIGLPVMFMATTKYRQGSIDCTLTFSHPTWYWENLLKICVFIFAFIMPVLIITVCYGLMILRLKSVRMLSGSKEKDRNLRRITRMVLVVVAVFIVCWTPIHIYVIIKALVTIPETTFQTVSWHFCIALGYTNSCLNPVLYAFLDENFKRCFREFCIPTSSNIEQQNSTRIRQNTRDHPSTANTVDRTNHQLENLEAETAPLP
Chain of Mu-type opioid receptor (Homo sapiens) + Delta-type opioid receptor (Homo sapiens) (P41143 whole entry, looked up): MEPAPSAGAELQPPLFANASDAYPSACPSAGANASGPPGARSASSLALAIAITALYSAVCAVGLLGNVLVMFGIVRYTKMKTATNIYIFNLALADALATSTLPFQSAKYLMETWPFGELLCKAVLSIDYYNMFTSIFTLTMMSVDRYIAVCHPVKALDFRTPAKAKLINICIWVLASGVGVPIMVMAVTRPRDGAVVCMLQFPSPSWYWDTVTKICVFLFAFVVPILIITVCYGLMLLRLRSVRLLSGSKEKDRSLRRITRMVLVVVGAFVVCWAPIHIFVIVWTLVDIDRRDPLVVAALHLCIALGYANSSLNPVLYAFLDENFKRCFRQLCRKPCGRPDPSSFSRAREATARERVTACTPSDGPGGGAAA

One may read the EC50 as the concentration giving half of the maximal effect. For `Cc1ccc2sc(N(CCCN(C)C)C(=O)c3ccc(Br)s3)nc2c1C`, the EC50 was > 64.6 µM (inactive).
With `O=C(N=Nc1c(O)n(Cc2ccccc2)c2ccccc12)c1cc2ccccc2cc1O`, the EC50 is > 92.5 µM (inactive).
In the case of `COc1cccc(-c2cnc3c(NC=O)cc(-c4ccc(O)c(OC)c4)cn23)c1`, the EC50 is > 64.6 µM (inactive).
As for `CCCCCCCNC(=O)C1(CC2CC(c3ccc(Cl)cc3)=NO2)CCNCC1` (stereo not given), the figure is > 64.6 µM (inactive); as for `CC(=O)Nc1cc(-c2ccc(F)cc2)cn2c(-c3ccc(F)c(Cl)c3)cnc12`, > 64.6 µM (inactive).
For the compound `O=C(CCN1C(=O)/C(=C/C=C/c2ccccc2)SC1=S)Nc1ccccn1`, the EC50 is > 92.5 µM (inactive).
As for `COc1ccc(-c2cc(NC(C)=O)c3ncc(-c4ccccc4)n3c2)c(OC)c1`, the figure is > 92.4 µM (inactive).
Under `O=C(NC(c1ccccc1)c1ccsc1)C1CCN(CCOc2ccc(Cl)cc2Cl)CC1` (stereo not given) stands “inactive”; under `O=C1c2cccc3cccc(c23)C(=O)N1CC1CCN(CC(O)COc2ccc3ccccc3c2)CC1` (stereo not given), > 10.3 µM (inactive).
As for `CN(C)CCOc1ccc(-c2c(-c3ccccc3)sc3ccccc23)cc1`, the figure is > 92.5 µM (inactive); as for `CC(=O)Nc1cc(-c2ccc(S(C)(=O)=O)cc2)cn2c(-c3ccc(F)c(Cl)c3)cnc12`, > 64.6 µM (inactive); as for `CN(C)c1ccccc1-c1cc(NC=O)c2ncc(-c3cccc(C(F)(F)F)c3)n2c1`, > 64.6 µM (inactive).
Take `O=C1OC(c2ccccc2)(c2cc(Br)ccc2O)c2ccccc21` (stereo not given): the EC50 entry is “inactive”.
As for `CN(C)CCNC(=O)c1cccc(-c2cc(NC=O)c3ncc(-c4cccc(C(F)(F)F)c4)n3c2)c1`, the figure is > 92.5 µM (inactive).
As for `CC(=O)Nc1cc(-c2ccccc2)cn2c(-c3ccc(F)cc3)cnc12`, the figure is > 64.6 µM (inactive); as for `COc1ccc(-c2cc(NC=O)c3ncc(-c4cccc(C(F)(F)F)c4)n3c2)cc1OC`, > 64.6 µM (inactive).
Under `CC12CCC3C(CC=C4CC(O)CCC43C)C1C/C(=C\c1ccccc1F)C2=O` (stereo not given) stands “inactive”; under `CCC(C)c1ccc(NC(=S)NC2CCN(Cc3ccccc3)CC2)cc1` (stereo not given), > 64.6 µM (inactive); under `COc1ccc(-c2cnc3c(NC(C)=O)cc(-c4ccccc4OC)cn23)cc1OC`, > 64.6 µM (inactive).
Regarding `Cc1nnnn1/C(=C\c1ccccc1)C(=O)OCC(=O)Nc1ccc(Cl)cc1F`, the EC50 is > 92.5 µM (inactive).
Under `Cc1c(CCOC(=O)CC23CC4CC(CC(C)(C4)C2)C3)sc[n+]1CC(=O)c1ccccc1` stands > 92.5 µM (inactive); under `COc1cccc(-c2cnc3c(NC=O)cc(-c4cc(OC)c(OC)c(OC)c4)cn23)c1`, > 92.5 µM (inactive); under `NC(Cc1ccc(C(F)(F)F)cc1)c1csc(Nc2nccc(C(F)(F)F)n2)n1` (stereo not given), > 92.4 µM (inactive).
Take `CCCCCCCCCCCCCCCC[N+](C)(C)Cc1ccc(F)cc1`: the EC50 was > 92.5 µM (inactive).
Under `CC(=O)Nc1cc(-c2cccnc2)cn2c(-c3cccc(C(F)(F)F)c3)cnc12` stands > 92.5 µM (inactive); under `COc1ccc(-c2cc(NC=O)c3ncc(-c4ccccc4)n3c2)cc1OC`, > 64.6 µM (inactive).
As for `COc1ccc2sc(-c3ccc(S(C)(=O)=O)cc3)c(C#Cc3cncn3C)c2c1`, the figure is > 92.5 µM (inactive).
Under `COc1ccc(-c2sc3ccc(N4CCOCC4)cc3c2C#CC2(O)CCCCC2)cc1` stands > 64.6 µM (inactive).
As to `CCC(C)(C)c1ccc(OCCCC[n+]2cccc(C)c2C)c(C(C)(C)CC)c1`, the EC50 is > 64.6 µM (inactive).
Take `CCN1CCC(O)(/C=C/c2ccc(C(C)C)cc2)C(C(=O)/C=C/c2ccc(C(C)C)cc2)C1` (stereo not given): the EC50 was > 64.6 µM (inactive).
On to `CC(C)c1ccc(NS(=O)(=O)c2ccc(-n3cccn3)cc2)cc1`, for which the EC50 is > 92.5 µM (inactive).
For `COc1ccc(CNC(=O)Nc2nc(C(N)Cc3ccc(C(F)(F)F)cc3)cs2)cc1` (stereo not given), the EC50 was > 64.6 µM (inactive).
As for `CC(=O)Nc1cc(-c2cccc(NS(C)(=O)=O)c2)cn2c(-c3ccccc3)cnc12`, the figure is > 92.5 µM (inactive).
Under `COc1ccc(-c2csc(C3=C(O)CN(Cc4ccc(Cl)cc4)C3=N)n2)cc1OC` stands > 64.6 µM (inactive); under `CCc1ccc(OCCNc2cc(N3CCNC(C)C3)ccc2[N+](=O)[O-])cc1` (stereo not given), > 92.5 µM (inactive).
Turning to `C/C(=C\c1ccco1)C1C(C#N)=C(N)Oc2n[nH]c(-c3ccc(C)cc3)c21` (stereo not given), the EC50 is > 64.6 µM (inactive).
As for `COc1cc(-c2cc(NC=O)c3ncc(-c4ccc(C(C)=O)cc4)n3c2)cc(OC)c1OC`, the figure is > 92.5 µM (inactive); as for `Nc1ccc(C2(c3ccc(N)cc3)c3ccccc3-c3ccccc32)cc1`, > 92.5 µM (inactive).
`COc1ccc(COc2ccsc2C(=O)Nc2ccc(Cl)c(Cl)c2)cc1`: the EC50 was > 64.6 µM (inactive).
Under `Cc1cc(C)cc(OCC(O)CN2CCC(CN3C(=O)c4cccc5cccc(c45)C3=O)CC2)c1` (stereo not given) stands > 64.6 µM (inactive).
Consider `COc1cc(-c2cc(NC=O)c3ncc(-c4ccccc4)n3c2)cc(OC)c1OC`, for which the EC50 was > 64.6 µM (inactive).
As for `NC(c1csc(NC(=O)Nc2cccc(Cl)c2)n1)C1CCCCC1` (stereo not given), the figure is > 92.5 µM (inactive); as for `Clc1ccccc1/C=N/NC1=Nc2cccc3cccc1c23`, > 64.6 µM (inactive).
In the case of `CC(=O)Nc1cc(-c2cccc(F)c2)cn2c(-c3ccc(F)cc3)cnc12`, the EC50 is > 92.5 µM (inactive).
On to `COc1ccc(-c2ccc3c(c2)S(=O)(=O)c2cccc(C(=O)NCc4cc(C)oc4C(F)(F)F)c2C3=O)cc1OC`, for which the EC50 was > 92.5 µM (inactive).
Under `FC(F)(F)c1cccnc1Oc1ccc(C2=NCCS2)cc1` stands > 92.4 µM (inactive); under `NC(CCc1ccccc1)c1csc(Nc2ccc(C(=O)c3ccccc3)cc2)n1` (stereo not given), > 92.5 µM (inactive).
As for `COc1ccc2oc(=O)c(-c3csc(Nc4cccc(O)c4)n3)cc2c1`, the figure is > 92.4 µM (inactive).
In the case of `CC(=O)Nc1cc(-c2cccnc2)cn2c(-c3ccc(F)cc3)cnc12`, the EC50 is > 64.6 µM (inactive).
As for `COc1ccc(-c2cnc3c(NC(C)=O)cc(-c4cc(F)ccc4OC)cn23)cc1OC`, the figure is > 64.6 µM (inactive).
Under `Clc1ccc(C2=Nn3c(nnc3-c3cc(-c4ccccc4)n[nH]3)SC2)cc1` stands “inactive”; under `Cc1ccc(Sc2ccc(NC(=O)CCl)cc2)cc1C`, “inactive”.
`CN(C)CCCN(C(=O)c1cc2cc([N+](=O)[O-])ccc2s1)c1nc2cc3c(cc2s1)OCCO3`: the EC50 was > 92.5 µM (inactive).
`Cc1ccc(C(=O)Nc2nc(C(N)Cc3ccc(C(F)(F)F)cc3)cs2)cc1` (stereo not given): the EC50 is > 64.6 µM (inactive).
As to `CC(=O)Nc1ccc(-c2csc(NC(=O)Nc3ccccc3)n2)cc1`, the EC50 was > 64.6 µM (inactive).
With `O=C(CCN1C(=O)/C(=C/C=C/c2ccccc2)SC1=S)Nc1cccnc1`, the EC50 was > 92.5 µM (inactive).
With `Cc1cccc(NC(=S)NC(=O)C(c2ccccc2)c2ccccc2)n1`, the EC50 is > 92.5 µM (inactive).
As for `CC(C)c1ccc(NC(=O)CSc2ncccc2C(=O)Oc2cccc([N+](=O)[O-])c2)cc1`, the figure is > 92.5 µM (inactive); as for `O=C(COc1ccc2c(c1)OCO2)Nc1ccc2c(c1)oc1ccccc12`, > 92.5 µM (inactive); as for `CC(=O)Nc1cc(-c2ccccc2)cn2c(-c3ccc(F)c(Cl)c3)cnc12`, > 92.5 µM (inactive).
As for `CCOC(=O)Cc1csc(NC(=O)c2sc3nc4cc(C)ccc4cc3c2N)n1`, the figure is > 92.4 µM (inactive).
Under `CCCOc1ccc(C(=O)C(CCC(CNCC)C(=O)c2ccc(OCCC)cc2)CNCC)cc1` (stereo not given) stands > 92.5 µM (inactive).
On to `CCCCCCCCCCOC(=O)Cn1c(COc2cccc(C)c2)[n+](C)c2ccccc21`, for which the EC50 was > 64.6 µM (inactive).
`CC(=O)Nc1cc(-c2cccc(F)c2)cn2c(-c3ccc(F)c(Cl)c3)cnc12`: the EC50 was > 64.6 µM (inactive).
Consider `O=CNc1cc(-c2ccsc2)cn2c(-c3ccccc3)cnc12`, for which the EC50 is > 92.5 µM (inactive).
Under `CCc1ccc(C2CC(c3ccc(F)cc3)Nc3nc(N)nn32)cc1` (stereo not given) stands > 92.5 µM (inactive); under `CCCOC(=O)c1cccc(Nc2nc(-c3cccnc3)nc3ccccc23)c1`, > 92.6 µM (inactive).
As for `O=C(Nc1cccc(NC(=S)NC(=O)c2cccs2)c1)c1ccccc1`, the figure is > 92.5 µM (inactive); as for `COC(=O)c1c(NC(=O)CC2SC(N)=NC2=O)sc2c1CCC(C(C)(C)C)C2` (stereo not given), > 92.5 µM (inactive).
With `COc1ccc(NC(=O)COC(=O)c2c(NC(C)=O)sc(C)c2C)cc1`, the EC50 was > 92.5 µM (inactive).
As for `NC(Cc1ccc(Cl)cc1)c1csc(NC(=O)Nc2ccccc2)n1` (stereo not given), the figure is > 64.6 µM (inactive); as for `CC(=O)Nc1cc(-c2ccc(C(=O)NC3CC3)cc2)cn2c(-c3cccc(C(F)(F)F)c3)cnc12`, > 64.6 µM (inactive); as for `CCCCCCCCCCCCCCCC[n+]1cccc(C(=O)N(CC)CC)c1`, > 64.6 µM (inactive).
On to `COc1ccc(/C=N/NC(=O)c2ccc(COc3ccccc3Cl)o2)c(OC)c1C`, for which the EC50 is > 64.6 µM (inactive).
On to `Clc1ccc(Cn2ncc3c(N4CCN(c5ccccc5)CC4)ncnc32)cc1`, for which the EC50 is > 92.3 µM (inactive).
As for `CC(=O)Nc1cc(-c2ccc(CO)cc2)cn2c(-c3cccc(C(F)(F)F)c3)cnc12`, the figure is > 64.6 µM (inactive); as for `CCN1CCN(Cc2ccc(NC(=O)c3cc(NC(=O)c4cncc(-c5ccc(C#N)cc5)c4)cc(OC)c3)cc2C(F)(F)F)CC1`, > 64.6 µM (inactive).
Regarding `CC(=O)Nc1cc(-c2ccccc2N(C)C)cn2c(-c3ccccc3)cnc12`, the EC50 is > 92.4 µM (inactive).
As for `COc1ccc(C(NC(=O)C2CCN(CCOc3ccc(Cl)cc3Cl)CC2)c2cccs2)cc1` (stereo not given), the entry is “inactive”; as for `CCOc1cc(CNCCc2c[nH]c3ccccc23)cc(Cl)c1OCC`, > 92.5 µM (inactive).
